The record followed here is BindingDB's records for patent US20240368161 (Cgenetech (Suzhou, China), 2024).

In assay [1] the target is Tyrosine-protein kinase JAK1 (Homo sapiens, UniProt P23458). The experiment in a line: JAK1 Kinase Inhibitory Activity Determination.
Assay [2] addresses Tyrosine-protein kinase JAK2 (Homo sapiens, UniProt O60674). The experiment in a line: JAK2 Kinase Inhibitory Activity Determination.
For assay [3], the target named is T1, Tyrosine-protein kinase JAK3 (Homo sapiens, UniProt P52333).
T1 sequence (P52333 whole entry): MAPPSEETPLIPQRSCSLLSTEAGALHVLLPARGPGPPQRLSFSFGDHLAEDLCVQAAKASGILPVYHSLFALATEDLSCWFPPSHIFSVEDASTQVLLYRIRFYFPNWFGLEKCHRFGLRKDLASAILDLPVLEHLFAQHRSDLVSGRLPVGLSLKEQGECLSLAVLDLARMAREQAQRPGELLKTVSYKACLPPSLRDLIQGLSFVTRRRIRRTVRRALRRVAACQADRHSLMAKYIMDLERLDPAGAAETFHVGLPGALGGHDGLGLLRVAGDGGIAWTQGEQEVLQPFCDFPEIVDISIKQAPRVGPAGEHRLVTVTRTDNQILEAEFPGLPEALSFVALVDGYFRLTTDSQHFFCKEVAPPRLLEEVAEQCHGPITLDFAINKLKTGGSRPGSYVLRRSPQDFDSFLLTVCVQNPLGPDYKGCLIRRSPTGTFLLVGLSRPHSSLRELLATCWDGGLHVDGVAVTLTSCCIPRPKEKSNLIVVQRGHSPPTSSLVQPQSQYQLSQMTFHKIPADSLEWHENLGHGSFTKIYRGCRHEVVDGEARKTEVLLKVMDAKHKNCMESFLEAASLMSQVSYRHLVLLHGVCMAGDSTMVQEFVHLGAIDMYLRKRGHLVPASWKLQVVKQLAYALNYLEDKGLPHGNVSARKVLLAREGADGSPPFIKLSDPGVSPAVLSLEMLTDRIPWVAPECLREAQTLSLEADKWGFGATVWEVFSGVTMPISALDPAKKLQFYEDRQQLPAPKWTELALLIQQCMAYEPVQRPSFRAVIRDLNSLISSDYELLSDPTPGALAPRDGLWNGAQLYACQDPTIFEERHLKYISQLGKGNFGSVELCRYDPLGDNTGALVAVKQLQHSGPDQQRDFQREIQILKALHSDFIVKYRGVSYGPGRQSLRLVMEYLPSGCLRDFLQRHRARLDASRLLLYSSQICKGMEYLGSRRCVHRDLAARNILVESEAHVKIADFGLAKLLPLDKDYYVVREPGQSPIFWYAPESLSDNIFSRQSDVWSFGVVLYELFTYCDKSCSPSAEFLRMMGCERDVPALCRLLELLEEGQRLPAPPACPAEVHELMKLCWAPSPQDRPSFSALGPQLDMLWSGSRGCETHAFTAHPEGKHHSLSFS
The experiment in a line: JAK3 Kinase Inhibitory Activity Determination.
Experimental: At the end of incubation, HTRF665/620 signals were read on a multifunctional microplate reader.

Tyrosine-protein kinase JAK2, sequence (O60674 whole entry): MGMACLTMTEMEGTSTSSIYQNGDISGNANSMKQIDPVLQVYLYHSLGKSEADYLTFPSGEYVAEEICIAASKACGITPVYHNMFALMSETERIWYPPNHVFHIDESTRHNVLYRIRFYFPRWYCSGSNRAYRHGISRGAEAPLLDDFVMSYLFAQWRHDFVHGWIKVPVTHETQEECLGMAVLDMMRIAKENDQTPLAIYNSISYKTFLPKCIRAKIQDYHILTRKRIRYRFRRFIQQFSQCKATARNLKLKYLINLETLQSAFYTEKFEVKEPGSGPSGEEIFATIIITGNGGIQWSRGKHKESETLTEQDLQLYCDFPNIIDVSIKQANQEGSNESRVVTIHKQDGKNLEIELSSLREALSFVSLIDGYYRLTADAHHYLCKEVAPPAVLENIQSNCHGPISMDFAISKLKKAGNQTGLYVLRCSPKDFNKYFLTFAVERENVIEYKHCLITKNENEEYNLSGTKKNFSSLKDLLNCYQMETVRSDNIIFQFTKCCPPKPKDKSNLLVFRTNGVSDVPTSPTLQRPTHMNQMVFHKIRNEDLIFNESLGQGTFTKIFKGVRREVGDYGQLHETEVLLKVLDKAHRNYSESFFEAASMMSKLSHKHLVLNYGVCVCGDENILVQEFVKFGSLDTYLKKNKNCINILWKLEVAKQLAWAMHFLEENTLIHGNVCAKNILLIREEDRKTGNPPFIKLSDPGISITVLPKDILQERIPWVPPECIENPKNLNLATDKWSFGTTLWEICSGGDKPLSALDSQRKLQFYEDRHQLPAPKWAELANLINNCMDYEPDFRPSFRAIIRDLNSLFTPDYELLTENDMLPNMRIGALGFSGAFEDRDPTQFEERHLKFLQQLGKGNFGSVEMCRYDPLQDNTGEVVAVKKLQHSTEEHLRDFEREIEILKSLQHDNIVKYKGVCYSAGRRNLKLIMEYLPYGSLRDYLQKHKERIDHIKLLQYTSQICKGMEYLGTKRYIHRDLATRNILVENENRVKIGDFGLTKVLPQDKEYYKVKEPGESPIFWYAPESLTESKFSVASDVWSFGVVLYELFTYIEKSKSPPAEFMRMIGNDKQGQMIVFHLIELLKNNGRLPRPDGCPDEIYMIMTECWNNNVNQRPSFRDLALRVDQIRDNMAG
Tyrosine-protein kinase JAK1, sequence (P23458 whole entry): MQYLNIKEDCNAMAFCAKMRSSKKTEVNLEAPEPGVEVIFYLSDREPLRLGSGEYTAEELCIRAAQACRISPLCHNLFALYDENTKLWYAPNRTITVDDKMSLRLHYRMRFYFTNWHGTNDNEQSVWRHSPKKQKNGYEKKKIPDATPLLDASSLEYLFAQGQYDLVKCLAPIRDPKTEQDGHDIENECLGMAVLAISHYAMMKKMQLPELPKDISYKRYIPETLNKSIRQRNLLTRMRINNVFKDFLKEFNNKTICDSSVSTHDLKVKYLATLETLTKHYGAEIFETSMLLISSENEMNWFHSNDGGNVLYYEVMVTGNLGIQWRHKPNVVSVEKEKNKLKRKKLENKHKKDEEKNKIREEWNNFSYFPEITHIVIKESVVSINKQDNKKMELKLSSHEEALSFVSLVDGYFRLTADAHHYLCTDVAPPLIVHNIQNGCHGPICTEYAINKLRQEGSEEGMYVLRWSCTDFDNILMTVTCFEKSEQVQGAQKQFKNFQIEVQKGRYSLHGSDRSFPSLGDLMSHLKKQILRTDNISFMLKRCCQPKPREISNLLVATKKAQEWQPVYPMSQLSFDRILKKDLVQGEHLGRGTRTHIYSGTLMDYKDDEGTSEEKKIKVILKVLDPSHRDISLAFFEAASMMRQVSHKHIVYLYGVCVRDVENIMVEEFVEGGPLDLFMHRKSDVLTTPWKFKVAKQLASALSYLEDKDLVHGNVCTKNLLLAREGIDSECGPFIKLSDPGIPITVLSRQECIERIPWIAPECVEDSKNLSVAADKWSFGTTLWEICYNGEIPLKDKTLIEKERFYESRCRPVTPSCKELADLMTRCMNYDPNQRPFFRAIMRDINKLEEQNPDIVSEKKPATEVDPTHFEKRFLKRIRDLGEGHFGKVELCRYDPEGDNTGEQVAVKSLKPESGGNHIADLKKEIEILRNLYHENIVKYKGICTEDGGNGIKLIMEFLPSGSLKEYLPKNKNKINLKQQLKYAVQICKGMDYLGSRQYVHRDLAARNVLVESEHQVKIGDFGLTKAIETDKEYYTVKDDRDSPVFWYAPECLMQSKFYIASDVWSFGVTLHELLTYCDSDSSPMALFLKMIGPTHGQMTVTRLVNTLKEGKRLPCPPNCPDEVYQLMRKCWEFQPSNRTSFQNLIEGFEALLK

The term IC50 denotes the concentration needed to halve the response being measured. Low readings indicate greater potency in that assay, high ones weaker potency in that assay. Take `O=C(Nc1cn2c(-c3ccc(OC4CCS(=O)(=O)CC4)cc3)cccc2n1)C1CC1` [US20240368161, Compound 17]: the 50% inhibitory concentration (IC50) stood at 125 nM in assay [1], 72.7 nM in assay [2] and 1460 nM in assay [3].
For the compound `CS(=O)(=O)C1CCN(Cc2ccc(-c3cccc4nc(NC(=O)C5CC5)cn34)c(F)c2)CC1` [US20240368161, Compound 20], the IC50 in assay [1] was found to be 262 nM; in assay [2], 176 nM; in assay [3], 5760 nM.
Take `CS(=O)(=O)C1CCN(Cc2ccc(-c3cccc4nc(NC(=O)C5CC5)cn34)cc2)CC1` [US20240368161, Compound 16]: the 50% inhibitory concentration (IC50) was 74.4 nM in assay [1], 127 nM in assay [2] and 3120 nM in assay [3].
On to `CCCS(=O)(=O)C1CCN(Cc2ccc(-c3cccc4nc(NC(=O)C5CC5)cn34)cc2)CC1` [US20240368161, Compound 31], for which the half-maximal inhibitory concentration (IC50) in assay [1] was found to be 611 nM; in assay [2], 229 nM; in assay [3], 6900 nM.
Consider `CS(=O)(=O)C1CN(Cc2ccc(-c3cccc4nc(NC(=O)C5CC5)cn34)cc2)C1` [US20240368161, Compound 15], for which the half-inhibitory concentration (IC50) in assay [1] was 137 nM; in assay [2], 232 nM; in assay [3], 3170 nM.
